{"source": "patent US20090298178A1", "about": "“GROWTH FACTORS FOR PRODUCTION OF DEFINITIVE ENDODERM” (priority 2008, published 2009)", "key": {"[1]": {"tested_on": "hES cells (CyT49; passage 41)", "assay": "Differentiation of hES cells to definitive endoderm (stage 1) with TGF-beta member growth factors, real-time quantitative PCR (Example 1)", "format": "cell-based, human", "conditions": "for effectiveness for induction of definitive endoderm differentiation derived from hES cells: compared with activin A; for fold induction of SOX17 gene expression as compared to undifferentiated hESCs / fold induction of FOXA2 gene expression as compared to undifferentiated hESCs: 100 ng/ml factor, 75 ng/mL Wnt3a on first day, day 2 of differentiation; for fold induction of SOX17 gene expression as compared to undifferentiated hESCs: FIG. 2C; for efficiency in generating definitive endoderm cell populations: sufficient amounts, compared to Activin A and activin B", "from_the_text": "Human embryonic stem (hES) cells were differentiated in vitro to definitive endoderm (stage 1) for about 2-4 days substantially as described in D'Amour et al. 2006 Nat Biotechnol 24(11):1392-401 and U.S. Patent Application Publication Number 2007/0154984, which are herein incorporated in their entireties. Briefly, undifferentiated human embryonic stem (hES) cells were maintained on mouse embryo fibroblast feeder layers (Millipore, formerly Chemicon or Specialty Media) or on human serum coated plates (Valley Biomedical) in DMEM/F12 (Mediatech) supplemented with 20% KnockOut serum replacement (Invitrogen/Gibco), 1 mM nonessential amino acids (Invitrogen/Gibco), Glutamax (Invitrogen/Gibco), penicillin/streptomycin (Invitrogen/ Gibco), 0.55 mM 2-mercaptoethanol (Invitrogen/Gibco) and 4 ng/ml to 20 ng/mL recombinant human FGF2 (R&D Systems). Low dosages of Activin A (10-25 ng/ml, R&D Systems) were added to the growth culture medium to help maintain undifferentiated growth. Cultures were either manually passaged, or enzymatically passaged using 5 ug/mL dispase (Invitrogen/Gibco), or passaged using Accutase (Innovative Cell Technologies #AT104) at 1:4-1:15 split ratios every 3-7 days. Before initiating differentiation, hES cells were given a brief wash in PBS+/+ (PBS+/+ refers to PBS containing both calcuim and magnesium) (Mediatech).\nFour hES cell culture plates (CyT49; passage 41) were then differentiated in RPMI (Mediatech) supplemented with Glutamax, penicillin/streptomycin, and with either: i) 100 ng/mL activin A, ii) 100 ng/mL of activin B (R&D Systems), iii) 100 ng/mL of GDF8, or iv) 100 ng/mL of GDF11 (R&D Systems) and varying concentrations of defined FBS (HyClone). Additionally, 0.1% BSA (Invitrogen/Gibco) and 75 ng/mL Wnt3a (R&D Systems) were added on the first day (d0) of differentiation. FBS concentrations were 0% for the first 24 h and 0.2% for the second 24 h. Replicate samples were collected from each culture condition at 0, 24 and 48 hours after differentiation commenced and analyzed for relative gene expression using real-time quantitative PCR."}, "hES cells (CyT49)": {"tested_on": "hES cells (CyT49)", "assay": "Further differentiation of definitive endoderm to pancreatic endoderm and endocrine cells, real-time PCR at day 9 (Example 2)", "format": "cell-based, human", "conditions": "definitive endoderm produced with 100 ng/mL factor, compared with activin A, FIG. 3", "method": "(§1) Human ES cell cultures were maintained and differentiated substantially as described above in Example 1, and further differentiated to foregut endoderm (stage 2) and then onto pancreatic endoderm and pancreatic endocrine cells (stages 3 and 4). After 48 hours of differentiation to definitive endoderm (stage 1) the cells were briefly washed in PBS+/+ and then further differentiated in RPMI supplemented with 0.2% FBS, Insulin-Transferrin-Selenium (1:1000), Glutamax, penicillin/streptomycin, and 25 ng/mL KGF (R&D Systems) for 3 days. On the first day of stage 2, the culture also received TGF-beta inhibitor No. 4 (3-(6-Methylpyridin-2-yl)-4-(4-quinolyl)-1-phenylthiocarbamoyl-1H-pyrazole) at 2.5 uM (EMD Bioscience). After three days in stage 2 the cells were then differentiated for one day in DMEM with B27 supplement (1:100) containing all-trans retinoic acid (RA) at 0.2 uM and KAAD-cyclopamine at 0.25 uM. Following the single day of retinoid exposure, the cells were cultured in DMEM with B27 (1:100) containing noggin at 40 ng/ml. At day 9 of total differentiation, replicate samples were collected from each culture condition and analyzed for relative gene expression using real-time quantitative PCR."}, "hES cells": {"tested_on": "hES cells", "conditions": "McLean et al. Stem Cells 25:29-38 2007; cited from earlier work"}, "[2]": {"tested_on": "hES cells (CyT49; passage 48)", "assay": "Differentiation of hES cells with other TGF-beta family member proteins, real-time quantitative PCR (Example 3)", "format": "cell-based, human", "conditions": "for CDX2 induction level, fold higher expression over that observed with the activin A treatment: GDF3 500 ng/ml, TGF-beta3 100 ng/mL, FIG. 4C", "method": "Undifferentiated human embryonic stem (hES) cells (CyT49; passage 48) were maintained substantially as described in Example 1 above. Seven hES cell culture plates were then differentiated in RPMI (Mediatech) supplemented with Glutamax, penicillin/streptomycin, and either: i) activin A (100 ng/ml), ii) TGF-beta1 (100 ng/ml), iii) TGF-beta3 (100 ng/mL), iv) TGF-beta2 (200 ng/ml), v) GDF3 (500 ng/ml), vi) GDF9 (4 ug/ml), or vii) GDF15 (2.5 ug/ml) and varying concentrations of defined FBS (HyClone). Additionally, 0.1% BSA (Invitrogen/Gibco) and 75 ng/mL Wnt3a (R&D Systems) were added on the first day (d0) of differentiation. FBS concentrations were 0% for the first 24 h and 0.2% for the second 24 h. Replicate samples were collected from each culture condition at 0, 24 and 48 hours after differentiation commenced and analyzed for relative gene expression using real-time quantitative PCR."}, "[3]": {"tested_on": "hES cells (CyT49; passage 48)", "assay": "Further differentiation to pancreatic endoderm and endocrine cells, real-time PCR at 12 days (Example 3)", "format": "cell-based, human", "conditions": "12 days of differentiation", "method": "as §1\nSuch conditions are described in Example 2 above. In this example, however, the stage 4 noggin treatment lasted for 6 days and replicate samples were taken for real-time PCR analysis at a total of 12 days of differentiation as compared to 9 days of differentiation in Example 2. […] Similarly, the pancreatic endoderm or endocrine cells expressing endocrine markers NKX2-2 and INS were typically not detected in the non-activin A treated plates (FIG. 5C-D). Stated another way, the activin A treated plates were 1200-fold or more higher in expression of these markers than the non-Activin A treated plates."}, "[4]": {"tested_on": "hES cells (CyT49; passage 35)", "assay": "Differentiation of hES cells to definitive endoderm with activin A plus Wnt3a or GSK3 inhibitors, real-time quantitative PCR at 48 hours (Example 4)", "format": "cell-based, human", "conditions": "with 100 ng/mL activin A; inhibitor at 10 or 100 nM; FIG. 6A-B", "method": "Undifferentiated hES cells (CyT49; passage 35) were maintained substantially as described in Example 1 above. Ten hES cell culture plates were then differentiated in RPMI (Mediatech) supplemented with Glutamax, penicillin/streptomycin, and varying concentrations of defined FBS (HyClone). FBS concentrations were 0% for the first 24 h and 0.2% for the second 24 h. Additionally, 0.1% BSA (Invitrogen/Gibco) was added on the first day only. All plates received 100 ng/mL activin A for both days. […] Replicate samples were collected from each culture condition at 48 hours after differentiation commenced and analyzed for relative gene expression using real-time quantitative PCR."}}}
{"molecule": "GDF8: TGF-beta family member, also referred to as myostatin", "values": [{"measurement": "effectiveness for induction of definitive endoderm differentiation derived from hES cells", "setting": "[1]; 100 ng/mL", "value": "as effective as activin A"}, {"measurement": "fold induction of SOX17 gene expression as compared to undifferentiated hESCs", "setting": "[1]", "value": 1324, "unit": "fold"}, {"measurement": "fold induction of FOXA2 gene expression as compared to undifferentiated hESCs", "setting": "[1]; FIG. 2D", "value": 438, "unit": "fold"}, {"measurement": "efficiency in generating definitive endoderm cell populations", "setting": "[1]", "value": "more efficient compared to activin B"}, {"measurement": "subsequent differentiation of definitive endoderm to pancreatic endoderm expressing PDX1 and PTF1A or endocrine cells expressing NKX2-2", "setting": "hES cells (CyT49)", "value": "as effective"}]}
{"molecule": "insulin: protein that binds to the insulin receptor and can induce signaling", "values": [{"measurement": "insulin concentration detrimental for the production of definitive endoderm cells from hES cells", "setting": "hES cells", "value": "≥ 0.2", "unit": "µg/mL"}]}
{"molecule": "activin A: TGF-beta family growth factor used at 100 ng/mL to produce definitive endoderm", "values": [{"measurement": "definitive endoderm production as indicated by induction of SOX17 and CER1 gene expression", "setting": "[2]; activin A 100 ng/ml, other ligands 100 ng/ml to 4 ug/ml, 75 ng/mL Wnt3a on first day, FIG. 4A-B", "value": "definitive endoderm was produced only in the activin A treatment condition"}, {"measurement": "expression of endocrine markers NKX2-2 and INS, fold higher than the non-Activin A treated plates", "setting": "[3]; FIG. 5C-D", "value": "≥ 1200", "unit": "fold"}, {"measurement": "production of pancreatic endoderm and endocrine cell types as indicated by induction of PDX1, PTF1A, NKX2-2 and INS gene expression", "setting": "[3]; FIGS. 5A-D", "value": "produced only in the activin A treatment condition"}, {"measurement": "PDX1 expression level, fold higher in the presence of activin A as compared to GDF15", "setting": "[3]; comparator GDF15, FIG. 5A", "value": "14,497 fold"}, {"measurement": "PDX1 expression level, fold higher in the presence of activin A as compared to TGF-beta1", "setting": "[3]; comparator TGF-beta1, FIG. 5A", "value": 1413, "unit": "fold"}]}
{"molecule": "COc1ccc(CNC(=O)Nc2ncc([N+](=O)[O-])s2)cc1", "note": "[GSK3 inhibitor No. 8]", "values": [{"measurement": "differentiation of hES cells to definitive endoderm", "setting": "[4]", "value": "Neither GSK3 inhibitor No. 9 (“BIO”) nor GSK3 inhibitor No. 8 (GVIII) at 10 or 100 nM resulted in substantial differentiation"}]}
{"molecule": "O=C1Nc2cc(Br)ccc2/C1=C1/Nc2ccccc2/C1=N\\O", "note": "[GSK3 inhibitor No. 9]", "values": [{"measurement": "differentiation of hES cells to definitive endoderm", "setting": "[4]", "value": "Neither GSK3 inhibitor No. 9 (“BIO”) nor GSK3 inhibitor No. 8 (GVIII) at 10 or 100 nM resulted in substantial differentiation"}]}
{"molecule": "GDF11: TGF-beta family member with approximately 90% identity to myostatin", "values": [{"measurement": "effectiveness for induction of definitive endoderm differentiation derived from hES cells", "setting": "[1]; 100 ng/mL", "value": "as effective as activin A"}, {"measurement": "fold induction of SOX17 gene expression as compared to undifferentiated hESCs", "setting": "[1]", "value": 1306, "unit": "fold"}, {"measurement": "fold induction of FOXA2 gene expression as compared to undifferentiated hESCs", "setting": "[1]; FIG. 2D", "value": 382, "unit": "fold"}, {"measurement": "efficiency in generating definitive endoderm cell populations", "setting": "[1]", "value": "more efficient compared to activin B"}, {"measurement": "subsequent differentiation of definitive endoderm to pancreatic endoderm expressing PDX1 and PTF1A or endocrine cells expressing NKX2-2", "setting": "hES cells (CyT49)", "value": "as effective"}]}
{"molecule": "GDF3: TGF-beta family member also known as Vg-related gene 2 (protein, UniProt Q9NR23 251-364, looked up) Growth/differentiation factor …: AAIPVPKLSCKNLCHRHQLFINFRDLGWHKWIIAPKGFMANYCHGECPFSLTISLNSSNYAFMQALMHAVDPEIPQAVCIPTKLSPISMLYQDNNDNVILRHYEDMVVDECGCG", "values": [{"measurement": "CDX2 induction level, fold higher expression over that observed with the activin A treatment", "setting": "[2]", "value": 900, "unit": "fold"}]}
{"molecule": "activin B: TGF-beta family growth factor (R&D Systems) (protein, UniProt P09529 293-407, looked up) Inhibin beta B chain: GLECDGRTNLCCRQQFFIDFRLIGWNDWIIAPTGYYGNYCEGSCPAYLAGVPGSASSFHTAVVNQYRMRGLNPGTVNSCCIPTKLSTMSMLYFDDEYNIVKRDVPNMIVEECGCA", "values": [{"measurement": "expression of ISL1 as compared to activin A treated cultures", "setting": "[1]; 100 ng/mL, FIG. 2B, indicates mesoderm differentiation", "value": "higher expression"}, {"measurement": "FOXA2 induction (in words)", "setting": "[1]; 100 ng/mL, FIG. 2D", "value": "lower"}, {"measurement": "subsequent differentiation of definitive endoderm to pancreatic endoderm expressing PDX1 and PTF1A or endocrine cells expressing NKX2-2", "setting": "hES cells (CyT49)", "value": "less effective"}]}
{"molecule": "TGF-beta3: isoform of transforming growth factor beta (protein, UniProt P10600 301-412, looked up) Transforming growth factor …: ALDTNYCFRNLEENCCVRPLYIDFRQDLGWKWVHEPKGYYANFCSGPCPYLRSADTTHSTVLGLYNTLNPEASASPCCVPQDLEPLTILYYVGRTPKVEQLSNMVVKSCKCS", "values": [{"measurement": "CDX2 induction level, fold higher expression over that observed with the activin A treatment", "setting": "[2]", "value": "2,667 fold"}]}
